According to patent publication US10301298B2, “Methods, compounds, and compositions for the treatment of angiotensin-related diseases” (University of Southern California, priority 2013, dated 2019):
Read-outs that look alike come from different tables or passages of the source.

Assays:
[1] = target: T1, AT1R (Homo sapiens, UniProt P30556); assay: AT1R displacement assay with radiolabeled Ang II; type: binding; settings: displacement of radiolabeled Ang II or analogs; read-out: EC50 displacing Ang II at the AT1 receptor
T1 sequence (P30556 1-359): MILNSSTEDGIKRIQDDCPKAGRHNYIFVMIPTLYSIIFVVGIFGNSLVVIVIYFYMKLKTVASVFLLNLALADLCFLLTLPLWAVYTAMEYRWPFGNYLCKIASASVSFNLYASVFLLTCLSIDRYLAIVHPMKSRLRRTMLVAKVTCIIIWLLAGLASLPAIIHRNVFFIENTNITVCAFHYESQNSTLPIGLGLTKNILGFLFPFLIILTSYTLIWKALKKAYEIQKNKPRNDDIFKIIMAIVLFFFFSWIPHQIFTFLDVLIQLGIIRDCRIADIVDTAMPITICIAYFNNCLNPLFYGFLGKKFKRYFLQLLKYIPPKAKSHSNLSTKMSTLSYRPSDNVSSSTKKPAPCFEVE
Protocol: Compound 7 was evaluated in vitro for its ability to compete with ratholabeled Ang II or analogs in a displacement assay for AT1R and AT2R receptors.

[2] = system: db/db mice; assay: Fasting blood glucose in db/db mice; type: in vivo
Protocol: Mice homozygous for the diabetes spontaneous mutation Lepr^db (BKS.Cg-Dock7^m+/+Lepr^db/J), which is an obese model of type 2 diabetes as a consequence of truncation of the leptin receptor, have verified plasma glucose levels >500 mg/dL prior to initiation of treatment. Food and water were available ad libitum, and all mice were kept on a 12-hour light/dark cycle. BKS.Cg-Dock7^m+/+Lepr^db/J mice and their heterozygous controls (n=6/group) were administered either saline (control), Ang-(1-7) (500 mcg/kg/day), or Compound 7 500 mcg/kg/day for two weeks by subcutaneous (SC) injection. Mice were fasted overnight prior to assessment of plasma glucose levels. Blood was taken from the saphenous vein and tested for glucose levels by a glucometer.

[3] = system: MDA MB 231; assay: MTT cellular viability of MDA MB 231 breast cancer cell line; type: cell-based; settings: for IC50: Homo sapiens, MDA-MB-231, MTT
Protocol: Compound 7 was evaluated for its ability to modulate cancer proliferation using MDA MB 231 breast cancer cell line. MDA MB 231 was treated with increasing concentration of Compound 7 ranged from 1×10^−12 to 1×10^−3 M, where the cells were incubated for 48 hours. After the incubation, cellular viability was evaluated using 3-(4,5-dimethylthiazol-2-yl)-2,5-diphenyltetrazolium bromide or MTT, where viable cells are able to reduce MTT to formazan and form an insoluble crystal. The solubilized crystal can be spectrometrically determine, where cellular viability is compared to cells treated with vehicle. The cellular viability of MDA MB 231 is summarized (FIG. 9). […] Rather at 1×10^−12 M ([…]) of Compound 7, the cellular proliferation was only 70% of vehicle treated.

[4] = Oral bioavailability in C57Bl/6 mice; type: in vivo; settings: 500 μg/kg, oral gavage vs intravenous
Protocol: Compound 7 was evaluated for oral bioavailability at 500 μg/kg in C57Bl/6 mice. The drug was given by intravenous injection or by oral gavage and blood was collected at 0.5, 1, 2, 4, 8, 24 hours into heparinized tubes. The level of drug in the blood was measured by liquid chromatograph-mass spectrometry. Bioavailability was determined using the following ratio AUCIG/AUCIV (FIG. 10).

[5] = system: C57Bl/6 mice; assay: Acute toxicity in C57Bl/6 mice; type: in vivo; settings: 500 μg/kg subcutaneous or intravenous, 7 days after treatment
Protocol: Compound 7 was evaluated for acute toxicity at 500 μg/kg in C57Bl/6 mice that was given as either a subcutaneous or intravenous injection, and its safety was evaluated for 7 days after treatment.

CCCCOC(=O)NS(=O)(=O)c1ccc(OC(F)(F)F)cc1-c1ccc(Cn2ccnc2)cn1 [Compound 7, butyl (2-(5-((1H-imidazol-1-yl)methyl)pyridin-2-yl)-4-(trifluoromethoxy)phenyl)sulfonylcarbamate]
EC50 [1]: > 10000 nM | reduction of peripheral glucose versus vehicle or Ang(1-7) treated mice ([2]; 500 μg/kg/day, 14 days): > 40% | reduction of FBG in terms of the excess blood glucose over non-diabetic controls ([2]; 500 mcg/kg/day SC, two weeks): 72% | fasting blood glucose (FBG) versus db/db mice treated with saline ([2]; 500 mcg/kg/day SC, two weeks, p<0.05): significantly lower | IC50 ([3]; 48 hours, read-out: IC50 (MDA MB 231 proliferation)): 58 nM | IC50 ([3]; 48 hours, read-out: IC50 (MDA MB 231 viability, Hill-slope analysis)): 58.2 nM | effect on breast cancer cell proliferation ([3]; MDA MB 231, 1×10^−12 to 1×10^−3 M): did not increase breast cancer cell proliferation | cellular proliferation, % of vehicle treated ([3]; MDA MB 231, at 1×10^−12 M, 48 hours): 70% | oral bioavailability (AUCIG/AUCIV) [4]: 30% | acute toxicity [5]: No overt signs of toxicity
